Like-named read-outs stand apart in the source and are kept apart here. Where only a bound is given, the exact number is not on record here.

Consider five compounds from patent EP1375483A1, “6-CHLORO-3-PYRIDYLMETHYLPROPYLAMINE DERIVATIVES, PREPARATION PROCESS THEREOF AND BACTERICIDES” (KUREHA KAGAKU KOGYO KABUSHIKI KAISHA, priority 2001, dated 2001).

The test system of assay [1] is wheat powdery mildew. Put plainly: Test of control effect on wheat powdery mildew (Test Example 1). It is filed as in vivo. The conditions noted are these: wettable powder 125 mg/l, 100 liters/10 a, sprinkled on wheat seedlings (Nourin 64) before inoculation, examined 9th to 14th day after inoculation; for pest or weed control at 125 µg/mL: Triticum aestivum. The protocol: Wettable powders were prepared from compounds of the present invention I-1 to I-27 and comparative compounds (a) to (d) , (m-1) and (m-3). The obtained wettable powder was diluted and suspended with water to provide the predetermined concentration (125 mg/l), and was sprinkled onto seedlings of wheat (variety: "Nourin 64") at the first to the second leaf period which were cultivated using square plastic pots (size: 6.4 cm x 6.4 cm) in a rate of 100 liters/10 a (ares). After drying the sprinkled leaves with air, a suspension of wheat powdery mildew spores taken from infected leaves was inoculated by spraying onto the sprinkled leaves. They were supervised in a green house (temperature: 20 to 24°C, relative humidity: 20 to 70 RH). On the 9th to 14th day after the inoculation, the infection degree was examined according to the following scale and the control value of each compound was calculated by the following calculation equation 1. [table] (Equation 1) Control value = (1 - infection degree of treated zone/infection degree of untreated zone) x 100 (%) [formula] The control values of each compound are shown in Table 8.

Assay [2] relates to cucumber powdery mildew. The assay is described as follows: Test of control effect on cucumber powdery mildew (Test Example 2). It is filed as in vivo. The note with it: wettable powder 100 mg/l, 100 liters/10 a, sprinkled on cucumbers (Sagamihanpakufushinari) before inoculation, examined 9th to 14th day after inoculation; for pest or weed control at 100 µg/mL: Cucumis sativus. How it is done:
The wettable powders formulated by using each of the compounds I-1 to 27 according to the present invention and the comparative compounds (a) to (d), (m-1) and (m-3) were each diluted and suspended with water to a predetermined concentration (100 mg/l), the suspension was sprinkled over the first to the second leaf period cucumbers (variety: "[…]") cultivated by using a square plastic pot (size: 6. 4 cm x 6. 4 cm) in a rate of 100 liters/10 a (ares). After the sprinkled leaves were air-dried, the spores were inoculated over the leaves by sprinkling the same with a brush from an infected leaf, a disease was contracted in a glass house (temperature: 20 to 24°C, relative humidity: 20 to 70 RH). On the 9th to 14th day after the inoculation, the infection degree was examined according to the following scale and the control value of each compound was calculated by the following calculation equation 2: [table] (Equation 2) Control value = (1 - infection degree of treated zone/infection degree of untreated zone) x 100 (%) [formula] The control values of each compound are shown in Table 9.

Assay [3] concerns Botrytis cinerea. The assay is described as follows: Antifungal activity test against various pathogenic fungi, hypha extension on PDA plates (Test Example 3). It is filed as cell-based. The note with it: read-out: Growth Inhibition B.c (1.6).
Assay [4] deals with Microdochium nivale. Described as above. It is filed as cell-based. The conditions noted are these: read-out: Growth Inhibition M.n (3.2).
The test system of assay [5] is Leptosphaeria nodorum. Described as above. It is filed as cell-based. The note with it: Parastagonospora nodorum, read-out: Growth Inhibition L.n (0.8).
For assay [6], the system named is Rhynchosporium secalis. The assay is described as above. Type of assay: cell-based. The note with it: read-out: Growth Inhibition R.s (100).
The subject of assay [7] is Pyrenophora graminea. The description is as above. It is filed as cell-based. The note with it: read-out: Growth Inhibition P.g (12.5).
Assay [8] concerns Pyricularia oryzae. The assay is described as follows: microbe, parasite or virus in culture. The note with it: read-out: Growth Inhibition P.o (12.5). Type of assay: cell-based.
Assay [9] has as its system Venturia inaequalis. The assay is described as follows: Antifungal activity test against various pathogenic fungi, hypha extension on PDA plates (Test Example 3). It is filed as cell-based. The conditions noted are these: read-out: Growth Inhibition V.i (3.2).
Assay [10] concerns Pseudocercosporella herpotrichoides. The description is as above. It is filed as cell-based. The conditions noted are these: Oculimacula yallundae, read-out: Growth Inhibition P.h (25).
For assay [11], the system named is Septoria tritici. Described as above. Type of assay: cell-based. The conditions noted are these: Zymoseptoria tritici, read-out: Growth Inhibition S.t (100).
In assay [12] the test system is wheat powdery mildew. Put plainly: Permeable mobility fungicidal effect test in leaf section of wheat powdery mildew (Test Example 4). Type of assay: in vivo. How it is done:
In the test example 4, permeable mobility fungicidal effect test was performedon the leaf section of wheat powdery mildew with regard to the compounds I-1 to 27 according to the present invention and the comparative compounds (a) to (d), and (m-1) to (m-3) with the method described later. The compound in the form of a wettable powder obtained by Formulation 2 or the like was diluted and suspended with water to a predetermined concentration (200mg/l), and 0.5 µl of the suspension was applied to a 2 to 3 cm leaf portion from the root of the three leaves of the 4th to 4.5th leaf period wheat (variety: Abukumawase) cultured by using a square plastic pot (size: 6.4 cm x 6.4 cm). After these wheat leaves were subject to still standing in a glass house (temperature: 20 to 24C, relative humidity: 20 to 70 RH) for one day, the spores of wheat powdery mildew were inoculated over the leaves by sprinkling the same with a brush from an infected leaf, a disease was contracted in the same glass house. The length of a non-contracted area generated from the applied portion to the direction of the leaf top was measured, and a relative mobility to the compound (m-2) was calculated with the following calculation […] by using the comparative compound (m-2) as a standard compound. (Equation 4) Relative mobility = (Length of non-contracted area in each chemical section (cm)/Length of non-contracted area of compound (m-2) (cm)) [formula]

Where [13] appears, read: 1.6 ppm in PDA culture medium, cultured 1 to 7 days.
Where [14] appears, read: 3.2 ppm in PDA culture medium, cultured 1 to 7 days.
Where [15] appears, read: Leptosphaeria nodorum, 0.8 ppm in PDA culture medium, cultured 1 to 7 days.
[16] abbreviates: 100 ppm in PDA culture medium, cultured 1 to 7 days.
The mark [17] stands for this setting: 12.5 ppm in PDA culture medium, cultured 1 to 7 days.
Setting [18] is: Pseudocercosporella herpotrichoides, 25 ppm in PDA culture medium, cultured 1 to 7 days.
[19] abbreviates: Septoria tritici, 100 ppm in PDA culture medium, cultured 1 to 7 days.
[20] abbreviates: length of non-contracted area relative to compound (m-2), 0.5 µl of 200 mg/l suspension applied to wheat leaf (Abukumawase), inoculated after one day.

`CC(Cc1ccc(OC(F)(F)F)cc1)CN(C)Cc1ccc(Cl)nc1` (stereo not drawn) [Compound I-12, 6-chloro-N-methyl-N-[3-(4-trifluoromethoxyphenyl)-2-methylpropyl]-3-pyridylmethylamine] gave a pest or weed control at 125 µg/mL in [1] of 100%. Besides, the pest or weed control at 100 µg/mL in assay [2] was determined as 100%. In addition, the inhibition at 1.6 ppm in assay [3] (setting [13]) lay in the range of 70 to 90%. Besides, the inhibition at 3.2 ppm is > 90% in [4] (setting [14]) and 70 to 90% in assay [9] (setting [14]). Also, the inhibition at 0.8 ppm in [5] (setting [15]) was > 90%. In addition, the inhibition at 100 ppm in assay [6] (setting [16]) was > 90%; in assay [11] (setting [19]), 70 to 90%. Besides, the inhibition at 12.5 ppm in assay [7] (setting [17]) and in assay [8] was 70 to 90% in each case. Also, in assay [10] (setting [18]), the inhibition at 25 ppm is > 90%. Moreover, the “Relative Mobility” value in assay [12] (setting [20]) amounted to 10.

In turn, `CC(Cc1ccc(OC(F)(F)F)c(F)c1)CN(C)Cc1ccc(Cl)nc1` (stereo not drawn) [Compound I-17, 6-chloro-N-[3-(3-fluoro-4-trifluoromethoxyphenyl)-2-methylpropyl]-N-methyl-3-pyridylmethylamine] showed a pest or weed control at 125 µg/mL in assay [1] of 100%. The compound also displayed a pest or weed control at 100 µg/mL in assay [2] of 100%. Also, in [3] (setting [13]), the inhibition at 1.6 ppm was > 90%. In addition, the inhibition at 3.2 ppm is > 90% in [4] (setting [14]) and 70 to 90% in assay [9] (setting [14]). The inhibition at 0.8 ppm in assay [5] (setting [15]) was > 90%. Moreover, the inhibition at 100 ppm is > 90% in assay [6] (setting [16]) and 70 to 90% in assay [11] (setting [19]). Besides, the inhibition at 12.5 ppm in [7] (setting [17]) and in [8] was 70 to 90% each time. Also, the inhibition at 25 ppm in [10] (setting [18]) is > 90%. Moreover, the “Relative Mobility” value in [12] (setting [20]) came out at 10.

In turn, `CC(Cc1cc(F)c(OC(F)(F)F)c(F)c1)CN(C)Cc1ccc(Cl)nc1` (stereo not drawn) [Compound I-20, 6-chloro-N-[3-(3,5-difluoro-4-trifluoromethoxyphenyl)-2-methylpropyl]-N-methyl-3-pyridylmethylamine] showed a pest or weed control at 125 µg/mL in assay [1] of 100%. In assay [2], this compound yielded a pest or weed control at 100 µg/mL of 100%. In assay [3] (setting [13]), the inhibition at 1.6 ppm is > 90%. Moreover, the inhibition at 3.2 ppm in assay [4] (setting [14]) and in assay [9] (setting [14]) was 70 to 90% in each case. The inhibition at 0.8 ppm in assay [5] (setting [15]) is > 90%. The inhibition at 100 ppm in assay [6] (setting [16]) and in [11] (setting [19]) was 70 to 90% throughout. Moreover, the inhibition at 12.5 ppm in assay [7] (setting [17]) and in [8] was 70 to 90% throughout. Moreover, the inhibition at 25 ppm in [10] (setting [18]) is > 90%. Also, the “Relative Mobility” value in assay [12] (setting [20]) is listed as 9.

Turning to `CC(Cc1cc(F)cc(Cl)c1)CN(C)Cc1ccc(Cl)nc1` (stereo not drawn) [Compound I-21, 6-chloro-N-[3-(3-chloro-5-fluorophenyl)-2-methylpropyl] -N-methyl-3-pyridylmethylamine], the pest or weed control at 125 µg/mL in assay [1] is 100%. Moreover, the pest or weed control at 100 µg/mL in assay [2] worked out at 100%. For the same compound, in assay [3] (setting [13]), the inhibition at 1.6 ppm is > 90%. Besides, the inhibition at 3.2 ppm in [4] (setting [14]) and in assay [9] (setting [14]) was 70 to 90% throughout. Further, in assay [5] (setting [15]), the inhibition at 0.8 ppm is > 90%. Besides, the inhibition at 100 ppm is > 90% in assay [6] (setting [16]) and 70 to 90% in assay [11] (setting [19]). The inhibition at 12.5 ppm in [7] (setting [17]) was > 90%; in [8], 70 to 90%. Moreover, in assay [10] (setting [18]), the inhibition at 25 ppm was > 90%. Besides, in [12] (setting [20]), the “Relative Mobility” value is listed as 9.

In the case of `CC(Cc1ccc2c(c1)OC(F)(F)O2)CN(C)Cc1ccc(Cl)nc1` (stereo not drawn) [Compound I-24], the “Control Value” in [1] and in assay [2] was 100% throughout. The inhibition at 1.6 ppm in assay [3] lay within 70 to 90%. Further, the inhibition at 3.2 ppm in [4] and in [9] was 70 to 90% in each case. In addition, the inhibition at 0.8 ppm in assay [5] is > 90%. In addition, the figures for the inhibition at 100 ppm in [6] and in [11] were > 90% and 70 to 90%, respectively. Besides, the inhibition at 12.5 ppm in [7] is > 90%; in assay [8], 70 to 90%. Besides, the inhibition at 25 ppm in assay [10] is > 90%. In [12] (24 h, 200 ug/mL), the “Relative Mobility” value is 6.

By pest or weed control is commonly meant how far the test organism was held down. In general, inhibition refers to the change of the read-out against control, counted positive when it falls.
